Assay results from US12180466B2, “Plant tissue collection, RNA extraction and genetic analysis” (WINFIELD SOLUTIONS, LLC, priority 2018, dated 2024).

How the values were obtained:
maize seeds [1] = test: Germination of treated maize seeds and harvestability of tissue at timepoints (Maize Trial 1); type: in vivo; conditions: for non-harvestable seeds (did not germinate): 120-hour timepoint, subgroup 4, radicle and coleoptile
Procedure: This study applied 5 different PGRs to separate treatment groups each comprised of 30 maize seeds. A negative control group of 30 maize seeds was exposed to a control solution devoid of any PGRs. The ability to germinate the seeds and harvest the desired tissues from the seeds and nascent seedlings at 5 timepoints was evaluated, and the total RNA extracted, sequenced and analyzed. […] Ten plates were prepared for each of the 6 groups evaluated (5 treatment groups+1 control group). Each test group included 5 subgroups, each subgroup corresponding to 1 of the 5 harvesting timepoints. Replicates of each subgroup were prepared, such that each of the 5 subgroups of seeds occupied two plates. Group 1 served as the untreated negative control group. Group 2 was treated with a first PGR composition (“PGR 1”) that includes active components containing 0.09 wt % cytokinin (kinetin), 0.03 wt % GA, and 0.045 wt % IBA. Group 3 was treated with kinetin. Group 4 was treated with GA. Group 5 was treated with IBA. Group 6 was treated with a second PGR composition (“PGR 2”) that includes active components containing 0.11 wt % CPPA and 0.01 wt % cytokinin (kinetin). Stock solutions of the treatments were prepared, each including equal amounts of propylene glycol, which was used to dissolve the kinetin. The amount of each treatment substance applied per seed varied between, but not within, the treatment groups. As shown below in Table 1, the control group was untreated. Each seed within group 2 was treated with 1.2 μL of the PGR 1. Each seed within group 3 was treated with 1.14 μg of kinetin. Each seed within group 4 was treated with 0.572 μg of GA. Each seed within group 5 was treated with 0.381 μg of IBA. Each seed within group 6 was treated with 1.7 μL of PGR 2. The seeds in each group were incubated at 15.5° C. and harvested at 5 timepoints. The first subgroup within each group was harvested after 12 hours of incubation, the second subgroup after 24 hours, the third subgroup after 96 hours, the fourth subgroup after 120 hours, and the fifth subgroup after 144 hours. […]

maize seeds [2] = test: Whole-genome RNA sequencing of tissue from PGR-treated germinating maize seeds/seedlings, gene expression relative to control; type: in vivo; conditions: radicle, 144-hour timepoint
Procedure: This study applied 5 different PGRs to separate treatment groups each comprised of 30 maize seeds. A negative control group of 30 maize seeds was exposed to a control solution devoid of any PGRs. The ability to germinate the seeds and harvest the desired tissues from the seeds and nascent seedlings at 5 timepoints was evaluated, and the total RNA extracted, sequenced and analyzed. […] Ten plates were prepared for each of the 6 groups evaluated (5 treatment groups+1 control group). Each test group included 5 subgroups, each subgroup corresponding to 1 of the 5 harvesting timepoints. Replicates of each subgroup were prepared, such that each of the 5 subgroups of seeds occupied two plates. Group 1 served as the untreated negative control group. Group 2 was treated with a first PGR composition (“PGR 1”) that includes active components containing 0.09 wt % cytokinin (kinetin), 0.03 wt % GA, and 0.045 wt % IBA. Group 3 was treated with kinetin. Group 4 was treated with GA. Group 5 was treated with IBA. […] Expression data for 39,460 different genes was obtained and analyzed to identify which genes were differentially expressed relative to control samples at the timepoints and tissue types sampled and in response to the different treatments applied to each test group.

| SMILES | seeds that did not germinate (maize seeds [1]; 144-hour timepoint, subgroup 5) [seeds] | expression of gene coding for phosphopantothenate-cysteine ligase protein (maize seeds [2]) | non-harvestable seeds (did not germinate) (maize seeds [1]) [seeds] |
| --- | --- | --- | --- |
| O=C(O)CCCc1c[nH]c2ccccc12 [IBA, indole-3-butyric acid] | 1 | increased expression |  |
| C=C1C[C@]23C[C@@]1(O)CC[C@H]2[C@@]12C=C[C@H](O)[C@@](C)(C(=O)O1)[C@H]2[C@@H]3C(=O)O [group 4, gibberellic acid] |  |  | 1 |
| c1coc(CNc2ncnc3[nH]cnc23)c1 [group 3, kinetin] |  |  | 2 |
